Experiments:
[1] = Protonation constants of the ligands (equilibrium study); format: physicochemical; conditions: 25° C., 0.15M NaCl
Procedure: (§1) During the physico-chemical tests of tPC2AM^Pyp and tPC2AM^Pro compounds synthesized according to Example 1 and 2, their protonation constant, as well as equilibrium behaviour and kinetic inertism of their Mn(II) complexes was studied in detail, and the characteristic relaxivity values of the complexes were determined in the presence and absence of HSA (Human Serum Albumin), at 25 and 37° C. and physiological pH. All studies were performed in the presence of 0.15 M NaCl, the same concentration as that of the electrolyte under physiological conditions.
(§2) The results of equilibrium study are summarized in Table 1, in addition to the protonation constants, total basicity of ligands and stability constants of their Mn(II) complexes, the pMn value calculated for complexes are also represented in the table.

[2] = Stability constants of Mn(II) complexes and calculated pMn (equilibrium study); format: physicochemical; conditions: 25° C., 0.15M NaCl; for pMn: calculated from equilibrium constants at pH = 7.4 and cMn = cL = 10^−5 M
Procedure: as §1, §2
Based on the pMn values represented in Table 1 (calculated using the equilibrium constants at pH=7.4 and cMn=cL=10^−5 M), it can be concluded that the studied Mn(II) complexes are formed in 100% at physiological pH, which is an essential aspect of the practical use.

[3] = cited from earlier work
[4] = literature value, 'under the same conditions'; cited from earlier work

Row | logK1 (protonation constant) [1] | logK2 (protonation constant) [1] | ΣlogKi^H (total basicity) [1] | logKMnL (stability constant of Mn(II) complex) [2] | pMn [2] | logK3 (protonation constant) [1] | logK4 (protonation constant) [1] | SMILES | Gd(III) ion released, calculated on the basis of experiments at 25° C. ([3]; 25° C.) [%] | Gd(III) ion released during in vivo dissociation ([3]; 37° C.) [%] | r1 relaxivity [4] [mM⁻¹ s⁻¹]
1 | 11.31(1) | 3.94(3) | 15.26 | 13.09(2) | 7.09 |  |  | O=C(CN1CCNCCN(CC(=O)N2CCCCC2)Cc2cccc(n2)C1)N1CCCCC1 [tPC2AM^Pyp] |  |  | 
2 | 9.80(2) | 7.96(4) | 23.67 | 13.77(3) | 7.85 | 3.65(5) | 2.26(4) | O=C(O)C1CCCN1C(=O)CN1CCNCCN(CC(=O)N2CCCC2C(=O)O)Cc2cccc(n2)C1 (stereo not shown) [tPC2AM^Pro] |  |  | 
3 |  |  |  |  |  |  |  | CNC[C@H](O)[C@@H](O)[C@H](O)[C@H](O)CO.CNC[C@H](O)[C@@H](O)[C@H](O)[C@H](O)CO.O=C([O-])CN(CCN(CC(=O)[O-])CC(=O)O)CCN(CC(=O)[O-])CC(=O)O.[Gd+3] [MAGNEVIST] | 0.5 | 2.2 | 4.02
4 |  |  |  |  |  |  |  | CNC[C@H](O)[C@@H](O)[C@H](O)[C@H](O)CO.O=C([O-])CN1CCN(CC(=O)[O-])CCN(CC(=O)O)CCN(CC(=O)[O-])CC1.[Gd+3] [DOTAREM] |  |  | 3.83

Reference: patent publication US10568976B2, “3,6,9, 15-tetraaza-bicyclo [9.3.1 ]pentadeca-1(14), 11(15), 12-triene based compounds and their application as ligands of essential metal ion based MRI and 52MN based PET contrast agents” (DEBRECENI EGYETEM, priority 2015, dated 2020)
